{
  "source": "patent US20140155589A1",
  "about": "(priority 2011, published 2014)",
  "system": "Pseudomonas aeruginosa (PA 01 strain)",
  "conditions": "for Amount of pyocyanine produced per viable bacterial count Relative value (%): relative to control without compound; for Viable bacterial count: shake culture 37° C. 48 hours; for viable bacterial count compared with control: summary of Table 12; for amount of pyocyanine produced per viable bacterial count compared with control: summary of Table 13",
  "key": {"[1]": {"conditions": "Concentration of compound added 10 mM"}, "[2]": {"conditions": "Concentration of compound added 20 mM"}, "[3]": {"conditions": "Concentration of compound added 25 mM"}},
  "note": "Where two headings read alike, the source gives them in different places.",
  "data": [
    {"smiles": "C=CC(=O)O", "note": "[Acrylic acid]", "values": [
      {"measurement": "Amount of pyocyanine produced per viable bacterial count Relative value (%)", "setting": "[1]", "value": 250.1, "unit": "%"},
      {"measurement": "Viable bacterial count", "setting": "[1]", "value": "1.09e+09", "unit": "mL⁻¹"},
      {"measurement": "Amount of pyocyanine produced per viable bacterial count Relative value (%)", "setting": "[2]", "value": 201.8, "unit": "%"},
      {"measurement": "Viable bacterial count", "setting": "[2]", "value": "9.4e+08", "unit": "mL⁻¹"},
      {"measurement": "Amount of pyocyanine produced per viable bacterial count Relative value (%)", "setting": "[3]", "value": 233.1, "unit": "%"},
      {"measurement": "Viable bacterial count", "setting": "[3]", "value": "8.4e+08", "unit": "mL⁻¹"},
      {"measurement": "viable bacterial count compared with control", "value": "almost no difference"},
      {"measurement": "amount of pyocyanine produced per viable bacterial count compared with control", "value": "larger than that in the control"}
    ]},
    {"smiles": "O=P(O)(O)O", "note": "[Phosphoric acid]", "values": [
      {"measurement": "Amount of pyocyanine produced per viable bacterial count Relative value (%)", "setting": "[1]", "value": 118, "unit": "%"},
      {"measurement": "Viable bacterial count", "setting": "[1]", "value": "1.6e+09", "unit": "mL⁻¹"},
      {"measurement": "Amount of pyocyanine produced per viable bacterial count Relative value (%)", "setting": "[2]", "value": 105.8, "unit": "%"},
      {"measurement": "Viable bacterial count", "setting": "[2]", "value": "1.56e+09", "unit": "mL⁻¹"},
      {"measurement": "Amount of pyocyanine produced per viable bacterial count Relative value (%)", "setting": "[3]", "value": 107.6, "unit": "%"},
      {"measurement": "Viable bacterial count", "setting": "[3]", "value": "1.49e+09", "unit": "mL⁻¹"},
      {"measurement": "viable bacterial count compared with control", "value": "almost no difference"},
      {"measurement": "amount of pyocyanine produced per viable bacterial count compared with control", "value": "not so different"}
    ]},
    {"smiles": "O=P(O)(O)OP(=O)(O)OP(=O)(O)O", "note": "[Triphosphoric acid]", "values": [
      {"measurement": "Amount of pyocyanine produced per viable bacterial count Relative value (%)", "setting": "[1]", "value": 40.3, "unit": "%"},
      {"measurement": "Viable bacterial count", "setting": "[1]", "value": "1.5e+09", "unit": "mL⁻¹"},
      {"measurement": "Amount of pyocyanine produced per viable bacterial count Relative value (%)", "setting": "[2]", "value": 11.5, "unit": "%"},
      {"measurement": "Viable bacterial count", "setting": "[2]", "value": "1.5e+09", "unit": "mL⁻¹"},
      {"measurement": "Amount of pyocyanine produced per viable bacterial count Relative value (%)", "setting": "[3]", "value": 5.4, "unit": "%"},
      {"measurement": "Viable bacterial count", "setting": "[3]", "value": "1.52e+09", "unit": "mL⁻¹"},
      {"measurement": "viable bacterial count compared with control", "value": "almost no difference"},
      {"measurement": "amount of pyocyanine produced per viable bacterial count compared with control", "value": "significantly lower"}
    ]}
  ]
}
